The source of these data is PMC8291497 (ACS Chemical Biology, 2021).

In assay [1] the target is T1, Mint2 PARM 364-570 (Y524W), pWT PARM (PTB domain and ARM linker) (Homo sapiens, UniProt Q99767, Y524W).
T1 construct: made in house; host or cells: Escherichia coli BL21(DE3)pLysS
T1 sequence (Q99767 364-570 Y524W): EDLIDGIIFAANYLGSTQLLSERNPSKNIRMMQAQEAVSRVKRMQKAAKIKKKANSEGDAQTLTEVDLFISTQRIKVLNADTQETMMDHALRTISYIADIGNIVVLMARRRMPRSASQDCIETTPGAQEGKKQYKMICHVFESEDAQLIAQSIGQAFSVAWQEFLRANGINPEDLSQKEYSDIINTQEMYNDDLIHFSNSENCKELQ
The experiment in a line: Stopped flow binding kinetics, APP peptides to PARM (pseudo-wild type). Here is the method:
(§1) Kinetic binding rate constants were obtained using an upgraded SX17 stopped flow spectrometer (Applied Photophysics), and all experiments were conducted at 25 °C in 500 mM NaCl and 25 mM HEPES (pH 7.4). The relatively high NaCl concentration was used to improve the solubility of the proteins. The change in tryptophan fluorescence was measured using a band-pass filter (excitation at 280 nm and emission at 330 ± 30 nm) when mixing varying concentrations (2–50 μM) of the dansyl peptides with 1 μM protein or 0.5 μM semisynthetic proteins. […] For PTB variants, we used the kobs value from the fast kinetic phase for the analysis. […] We report the errors in kon and koff from the curve fitting. […] For these koff determinations, we report the standard error of the mean of three replicates. Φ values were defined as ΔΔGTS/ΔΔGeq, where ΔΔGTS = RT ln(kon^WT/kon^mut.) and ΔΔGeq = RT ln(Kd^mut./Keq^WT). Calculated coupling free energies were defined as ΔΔΔGEq = RT ln(Kd^mut.:WTKd^WT:mut./Kd^WT:WTKd^mut.:mut.) or ΔΔΔGTS = RT ln(kon^WT:WTkon^mut.:mut./kon^mut.:WTkon^WT:mut.) as previously described.[27] Propagated errors are reported.

The target of assay [2] is T2, Mint2 PTB 364-538 (without the ARM linker) (Homo sapiens, UniProt Q99767, Y524W).
T2 construct: made in house; host or cells: Escherichia coli BL21(DE3)pLysS
T2 sequence (Q99767 364-538 Y524W): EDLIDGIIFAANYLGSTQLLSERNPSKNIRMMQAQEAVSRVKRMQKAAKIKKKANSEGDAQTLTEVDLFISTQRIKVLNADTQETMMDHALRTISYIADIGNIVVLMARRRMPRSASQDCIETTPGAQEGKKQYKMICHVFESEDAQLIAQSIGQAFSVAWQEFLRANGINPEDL
As to the kind of experiment: Stopped flow binding kinetics, APP peptides to PTB. Here is the method: as §1

A further assay has as its target Mint2 PARMWT 364-570 (Homo sapiens, UniProt Q99767). As to the kind of experiment: biochemical.
Assay [3] addresses Mint2 PARM 364-570 (Y524W) (Homo sapiens, UniProt Q99767, Y524W). As to the kind of experiment: biochemical.
Assay [4] has as its target T3, Mint2 PARM 364-570 (Y524W, Y543A) (Homo sapiens, UniProt Q99767, Y524W/Y543A).
T3 sequence (Q99767 364-570 Y524W/Y543A): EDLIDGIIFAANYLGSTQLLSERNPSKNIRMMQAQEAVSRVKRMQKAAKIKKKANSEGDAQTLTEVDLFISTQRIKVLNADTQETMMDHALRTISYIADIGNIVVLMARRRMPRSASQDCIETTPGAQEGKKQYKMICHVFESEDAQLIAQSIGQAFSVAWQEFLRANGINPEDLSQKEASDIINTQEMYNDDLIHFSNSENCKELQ
As to the kind of experiment: biochemical.

Assay [5] addresses T4, Mint2 PARM 364-570 (Y524W, Y543E) (Homo sapiens, UniProt Q99767, Y524W/Y543E).
T4 sequence (Q99767 364-570 Y524W/Y543E): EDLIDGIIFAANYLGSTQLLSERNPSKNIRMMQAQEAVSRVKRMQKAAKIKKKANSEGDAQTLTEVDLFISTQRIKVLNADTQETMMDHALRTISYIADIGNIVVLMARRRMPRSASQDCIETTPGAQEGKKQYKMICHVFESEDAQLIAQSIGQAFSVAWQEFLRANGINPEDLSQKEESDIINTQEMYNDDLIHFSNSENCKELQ
The experiment in a line: biochemical.

In another assay the target is Mint2 PTB 364-538 (Homo sapiens, UniProt Q99767, Y524W). As to the kind of experiment: biochemical.
Assay [6] addresses T3, Mint2 PARM 364-570 (Y524W, Y543A). The experiment in a line: Stopped flow binding kinetics, APP peptides to PARM^Y543A. The arrangement: made in house; host or cells: Escherichia coli BL21(DE3)pLysS. As for the experimental part:
as §1

Assay [7] deals with T4, Mint2 PARM 364-570 (Y524W, Y543E). As to the kind of experiment: Stopped flow binding kinetics, APP peptides to PARM^Y543E. The arrangement: made in house; host or cells: Escherichia coli BL21(DE3)pLysS. As for the experimental part:
as §1

Assay [8] addresses T5, pseudo-wild type (pWT) PARM domain of Mint2 (residues 364-570, Y524W) (human, UniProt Q99767 364-570, Y524W). The experiment in a line: stopped-flow fluorescence kinetics. The following applies: both partners purified.
Assay [9] has as its target T6, PARM^WT (Mint2 residues 364-570) (human, UniProt Q99767 364-570). The experiment in a line: stopped-flow fluorescence kinetics. The following applies: both partners purified.
Another assay deals with PARM^Y543A (human, UniProt Q99767 364-570, Y524W | Y543A). The experiment in a line: stopped-flow fluorescence kinetics. The following applies: both partners purified.
The target in the next assay is PARM^Y543E (human, UniProt Q99767 364-570, Y524W | Y543E). As to the kind of experiment: stopped-flow fluorescence kinetics. As to conditions: both partners purified.
Assay [10] deals with PTB without the ARM linker (Mint2 residues 364-538) (human, UniProt Q99767 364-538, Y524W). As to the kind of experiment: stopped-flow fluorescence kinetics. As to conditions: both partners purified.
Assay [11] concerns the target T5, pseudo-wild type (pWT) PARM domain of …. The experiment in a line: fluorescence polarisation. The following applies: both partners purified. (In general: In fluorescence polarisation assays a small probe gives low polarisation when free and higher when bound to something large.)
Assay [12] concerns the target T6, PARM^WT (Mint2 residues 364-570). The experiment in a line: fluorescence polarisation. As to conditions: both partners purified.
Assay [13] has as its target PARM^WT (human Mint2 PTB domain with ARM linker, residues 364-570, no Y524W) (human, UniProt Q99767 364-570). The experiment in a line: fluorescence polarisation. As to conditions: both partners purified.
Assay [14] has as its target PARM, pseudo-wild type (human Mint2 364-570, Y524W) (human, UniProt Q99767 364-570, Y524W). As to the kind of experiment: fluorescence polarisation. The following applies: both partners purified.
The target in assay [15] is PARM^Y543A (human Mint2 364-570, Y524W, Y543A) (human, UniProt Q99767 364-570, Y524W | Y543A). The experiment in a line: fluorescence polarisation. As to conditions: both partners purified.
Assay [16] has as its target PARM^Y543E (human Mint2 364-570, Y524W, Y543E) (human, UniProt Q99767 364-570, Y524W | Y543E). The experiment in a line: fluorescence polarisation. The following applies: both partners purified.
In assay [17] the target is PTB (human Mint2 PTB domain without the ARM linker, residues 364-538, Y524W) (human, UniProt Q99767 364-538, Y524W). The experiment in a line: fluorescence polarisation. As to conditions: both partners purified.

Where no end group is shown, it is not given here. The star is where a group is joined. Dansyl = CN(C)c1cccc2c(S(=O)(=O)*)cccc12; TAMRA = carboxytetramethylrhodamine

On to `C[C@@H](O)[C@H](NC(=O)[C@@H]1CCCN1C(=O)[C@H](CC(N)=O)NC(=O)[C@H](CCC(=O)O)NC(=O)[C@H](Cc1ccc(O)cc1)NC(=O)CNC(=O)[C@H](CC(N)=O)NC(=O)CNC(=O)[C@H](CC(N)=O)NC(=O)[C@H](CC(N)=O)NS(=O)(=O)c1cccc2c(N(C)C)cccc12)C(=O)N[C@@H](Cc1ccc(O)cc1)C(=O)N[C@@H](CCCCN)C(=O)N[C@@H](Cc1cccc2ccccc12)C(=O)N[C@@H](Cc1ccccc1)C(=O)N[C@@H](CCC(=O)O)C(=O)O` [Peptide F764Nal1], for which the Kd in assay [1] was 1100 nM; in assay [2] it was 70 nM; in [6], 490 nM; in assay [7], 430 nM. Moreover, the kon (as a rule, the rate constant with which the complex forms) in [1] (pH 7.4) was 1.2e+06 M⁻¹ s⁻¹; in assay [2] (pH 7.4), 3.1e+07 ± 1e+06 M⁻¹ s⁻¹; in assay [6] (pH 7.4), 2.5e+06 M⁻¹ s⁻¹; in assay [7] (pH 7.4), 2.9e+06 M⁻¹ s⁻¹. Besides, the koff – broadly, a measure of how fast the partners let go of each other – was 1.3 s⁻¹ in assay [1] (stopped flow, same buffer, 25 °C, from fit of kobs vs peptide concentration, or displacement with 50–150 µM APP^WT when not well-defined); 2.3 s⁻¹ in [2]; 1.3 s⁻¹ in assay [6]; 1.2 s⁻¹ in [7]. The Ki – broadly, the dissociation constant of the complex between target and ligand, obtained from inhibition or displacement – was 1300 nM on Mint2 PARMWT 364-570; 500 nM in [3]; 500 nM in assay [4]; 470 ± 30 nM in assay [5]; 290 nM at Mint2 PTB 364-538.
As for `C[C@H](NC(=O)[C@H](Cc1ccc(O)cc1)NC(=O)[C@@H](NC(=O)[C@@H]1CCCN1C(=O)[C@H](CC(N)=O)NC(=O)[C@H](CCC(=O)O)NC(=O)[C@H](Cc1ccc(O)cc1)NC(=O)CNC(=O)[C@H](CC(N)=O)NC(=O)CNC(=O)[C@H](CC(N)=O)NC(=O)[C@H](CC(N)=O)NS(=O)(=O)c1cccc2c(N(C)C)cccc12)[C@@H](C)O)C(=O)N[C@@H](Cc1ccccc1)C(=O)N[C@@H](Cc1ccccc1)C(=O)N[C@@H](CCC(=O)O)C(=O)O` [Peptide K763A], on Mint2 PTB 364-538, the Ki came out at 800 nM.
For the molecule `C[C@H](NC(=O)[C@H](CC(N)=O)NC(=O)[C@H](CCC(=O)O)NC(=O)[C@H](Cc1ccc(O)cc1)NC(=O)CNC(=O)[C@H](CC(N)=O)NC(=O)CNC(=O)[C@H](CC(N)=O)NC(=O)[C@H](CC(N)=O)NS(=O)(=O)c1cccc2c(N(C)C)cccc12)C(=O)N[C@H](C(=O)N[C@@H](Cc1ccc(O)cc1)C(=O)N[C@@H](CCCCN)C(=O)N[C@@H](Cc1ccccc1)C(=O)N[C@@H](Cc1ccccc1)C(=O)N[C@@H](CCC(=O)O)C(=O)O)[C@@H](C)O` [Peptide P760A], the Ki in assay [3] came to 40000 ± 800 nM.
As for `C[C@@H](O)[C@H](NC(=O)[C@@H]1CCCN1C(=O)[C@H](CC(N)=O)NC(=O)[C@H](CCC(=O)O)NC(=O)[C@H](Cc1ccc(O)cc1)NC(=O)CNC(=O)[C@H](CC(N)=O)NC(=O)CNC(=O)[C@H](CC(N)=O)NC(=O)[C@H](CC(N)=O)NS(=O)(=O)c1cccc2c(N(C)C)cccc12)C(=O)N[C@@H](Cc1ccc(O)cc1)C(=O)N[C@@H](CCCCN)C(=O)N[C@@H](Cc1ccccc1)C(=O)N[C@@H](Cc1cccc2ccccc12)C(=O)N[C@@H](CCC(=O)O)C(=O)O` [Peptide F765Nal1], the Kd was 1500 nM in assay [1], 120 nM in assay [2] and 500 nM in [6]. In addition, the Ki on Mint2 PARMWT 364-570 is 2600 nM; in assay [4] it was 1000 nM; in assay [5] it was 1100 nM; on Mint2 PTB 364-538 it was 560 nM.
In the case of Dansyl-NGYENPTYKFFE [dansyl-APP^WT], the koff in [8] was 2.3 ± 0.08 s⁻¹; in [9], 1.2 ± 0.05 s⁻¹; with PARM^Y543A, roughly 2 s⁻¹; with PARM^Y543E, roughly 2 s⁻¹; in assay [10], roughly 2 s⁻¹. In addition, the kon came out at 390000 ± 4000 M⁻¹ s⁻¹ in assay [8], 380000 ± 3000 M⁻¹ s⁻¹ in [9] and 1.1e+07 M⁻¹ s⁻¹ in assay [10]. For the same molecule, the “fold increase in kon against PARM” value with PARM^Y543A and in the assay with PARM^Y543E was 2.5 fold each time. Further, the “ratio of Kd values for PARM and PTB” value in [10] was determined as 0.057.
On to {TAMRA}-NNGNGYENPTYKFFE [(TAMRA)-NNG-NGYENPTYKFFE], for which the binding result in [11] and in [12] was “binds” throughout.
Turning to NGYENPTYKFFE [APP^WT 12-mer (NGYENPTYKFFE), unlabelled], the inhibitory constant (Ki) was determined as 3200 nM in [13]; 3500 nM in assay [14]; 1100 nM in assay [15]; 1100 nM in assay [16]; 740 nM in [17].
